From PMC10350923, “In Vitro and In Vivo Biological Activities of Dipicolinate Oxovanadium(IV) Complexes” (Journal of Medicinal Chemistry, 2023)

Legend:
[1] = test system: HCT116 (colorectal carcinoma cell line); assay: MTS cell viability assay, HCT116; type: cell-based, human; conditions: Homo sapiens, HCT-116, 48 h of exposure, mean ± SEM
[2] = test system: A2780 (ovarian carcinoma cell line); assay: MTS cell viability assay, A2780; type: cell-based, human; conditions: Homo sapiens, A2780, 48 h of exposure, mean ± SEM
[3] = test system: HCT116-DoxR cells; assay: Alexa Fluor 488-annexin V/PI apoptosis assay, flow cytometry; type: cell-based, human; conditions: 48 h, complexes at IC50, cisplatin 5 μM, Dox 6 μM
[4] = test system: HCT116-DoxR (doxorubicin-resistant colorectal carcinoma cell line); conditions: doxorubicin in resistant line; cited from earlier work
[5] = test system: HCT116-DoxR cells; assay: Cell cycle progression, PI, flow cytometry; conditions: HCT116-DoxR, 3, 9, 24, 32 h; complexes at IC50, cisplatin 5 μM, Dox 6 μM
[6] = test system: HCT116-DoxR cells; assay: Autophagy induction, Green Detection Reagent, flow cytometry; conditions: 48 h, complexes at IC50, cisplatin 5 μM, Dox 6 μM

COc1cccc2c1C(=O)c1c(O)c3c(c(O)c1C2=O)C[C@@](O)(C(=O)CO)C[C@@H]3O[C@H]1C[C@H](N)[C@H](O)[C@H](C)O1 [doxorubicin, reference compound] gave an IC50 [1] of 0.5 ± 0.1 µM, an IC50 [2] of 0.1 ± 0.04 µM and an early apoptosis [3] of 19.0 ± 4.4%. For the same compound, the necrosis [3] was 11.2 ± 2.0%, the “percentage of apoptosis (total)” value [3] was 34% and the viable cells [3] was 54.9 ± 4.3%. For the same compound, the necrosis ([3]; listed as Dox) was 11%, the viable cells ([3]; listed as Dox) was “about 55%” and the IC50 [4] was greater than 6 µM. For the same compound, the “cell cycle arrest / cytostatic effect” value [5] was “did not occur” and the “increase of autophagic vesicles over the control” value [6] was roughly 2.3 fold.
